According to patent publication US20090163490A1, “Pyrrolopyrimidine Derivatives Used As HSP90 Inhibitors” (VERNALIS (R&D) LTD., priority 2006, published 2009):
Like-named read-outs stand apart in the source and are kept apart here.

What was measured:
human full-length HSP90 = target: T1, human full-length HSP90 (Homo sapiens, UniProt P08238); experiment: Fluorescence polarization (FP) binding assay; settings: competitive displacement of fluorescein-labelled probe from human full-length HSP90, activity range
T1 construct: E. coli expressed human full-length HSP90 protein, purified >95%; made in house; host or cells: E. coli
Excerpt: Fluorescence Polarization Assay
Fluorescence polarization {also known as fluorescence anisotropy} measures the rotation of a fluorescing species in solution, where the larger molecule the more polarized the fluorescence emission. When the fluorophore is excited with polarized light, the emitted light is also polarized. The molecular size is proportional to the polarization of the fluorescence emission.
The fluoroscein-labelled probe—
binds to HSP90 {full-length human, full-length yeast or N-terminal domain HSP90} and the anisotropy {rotation of the probe:protein complex} is measured.
Test compound is added to the assay plate, left to equilibrate and the anisotropy measured again. Any change in anisotropy is due to competitive binding of compound to HSP90, thereby releasing probe.
Stored at room temperature. • 3) BSA (bovine serum albumen) 10 mg/ml (New England Biolabs # B9001S) • 4) 20 mM probe in 100% DMSO stock concentration. Stored in the dark at RT. Working concentration is 200 nM diluted in AR water and stored at 4° C.
• 1) Add 100 μl×buffer to wells 1A and 12A(=FP BLNK) • 2) Prepare assay mix—all reagents are kept on ice with a lid on the bucket as the probe is light-sensitive.
• 3) Aliquot 100 μl assay mix to all other wells • 4) Seal plate and leave in dark at room temp for 20 minutes to equilibrate
This gives 2.5 mM {50×} stock cpd−assuming cpds 20 mM. • 4) Repeat for wells A2 to A10. Control in columns 11 and 12. • 5) Transfer 5 μl from row A to row B—not column 12. Mix well. • 6) Transfer 5 μl from row B to row C. […] Add 2 μl of 100 mM standard cpd to wells B12-H12 {is positive control} • 13) The Z′ factor is calculated from zero controls and positive wells.

BT474 cells = experiment: Sulforhodamine B (SRB) growth inhibition assay; type: cell-based; settings: Homo sapiens, BT-474, activity range
Procedure: A growth inhibition assay was also employed for the evaluation of test compounds:
Assessment of Cytotoxicity by Sulforhodamine B (SRB) Assay: Calculation of 50% Inhibitory Concentration (IC50).
• 1) Determine cell number by haemocytometer. • 2) Using an 8 channel multipipettor, add 160 μl of the cell suspension (3600 cells/well or 2×10^4 cells/ml) to each well of a 96-well microtitre plate. • 3) Incubate overnight at 37° C. in a CO2 incubator.
• 4) Stock solutions of drugs are prepared, and serial dilutions of each drug are performed in medium to give final concentrations in wells. • 5) Using a multipipettor, 40 μl of drug (at 5× final concentration) is added to quadruplicate wells. • 6) Control wells are at either side of the 96 well plates, where 40 μl of medium is added. • 7) Incubate plates in CO2 incubator for […].
• 8) Tip off medium into sink and immerse plate slowly into 10% ice cold trichloroacetic acid (TCA). Leave for about 30 mins on ice. • 9) Wash plates three times in tap water by immersing the plates into baths of tap water and tipping it off. • 10) Dry in incubator. • 11) Add 100 μl of 0.4% SRB in 1% acetic acid to each well (except the last row (right hand) of the 96 well plate, this is the 0% control, ie no drug, no stain. The first row will be the 100% control with no drug, but with stain). Leave for 15 mins. • 12) Wash off unbound SRB stain with four washes of 1% acetic acid. • 13) Dry plates in incubator. • 14) Solubilised SRB using […] of 10 mM Tris base and put plates on plate shaker for 5 mins. • 15) Determine absorbance at 540 nm using a plate reader. Calculate mean absorbance for quadruplicate wells and express as a percentage of value for control, untreated wells. • 16) Plot % absorbance values versus log drug concentration and determine the GI50., ie the concentration of test compound required to inhibit growth of the cells by 50%.
The compounds tested in the above assay were assigned to one of three activity ranges, namely A=<0.5 μM; B=0.5 μM to 10 μM; C=>10 μM, and the results for six of the compounds of the invention are reported in Table 2.

[1] = read-out: activity in the fluorescence polarization assay
[2] = read-out: ACTIVITY* (Activity in the FP binding assay)

T1 sequence (P08238 whole entry): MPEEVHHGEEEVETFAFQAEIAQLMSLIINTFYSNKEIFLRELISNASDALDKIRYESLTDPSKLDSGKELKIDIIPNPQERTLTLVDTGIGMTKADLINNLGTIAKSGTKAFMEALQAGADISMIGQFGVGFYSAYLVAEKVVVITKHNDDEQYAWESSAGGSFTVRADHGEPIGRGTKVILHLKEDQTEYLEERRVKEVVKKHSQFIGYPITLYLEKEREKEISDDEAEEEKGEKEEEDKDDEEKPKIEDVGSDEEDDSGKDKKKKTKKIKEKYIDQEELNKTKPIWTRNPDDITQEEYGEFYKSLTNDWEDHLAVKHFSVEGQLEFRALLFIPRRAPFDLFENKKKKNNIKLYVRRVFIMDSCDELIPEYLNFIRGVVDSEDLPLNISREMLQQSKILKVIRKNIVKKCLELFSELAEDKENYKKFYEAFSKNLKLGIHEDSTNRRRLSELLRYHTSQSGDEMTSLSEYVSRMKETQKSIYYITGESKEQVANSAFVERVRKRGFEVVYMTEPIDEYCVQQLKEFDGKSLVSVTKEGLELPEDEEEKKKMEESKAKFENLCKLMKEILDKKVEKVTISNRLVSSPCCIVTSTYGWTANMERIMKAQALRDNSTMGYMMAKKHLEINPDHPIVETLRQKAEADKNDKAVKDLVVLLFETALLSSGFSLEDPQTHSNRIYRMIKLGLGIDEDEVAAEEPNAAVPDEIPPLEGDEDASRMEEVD

SMILES | IC50 (human full-length HSP90; [1]) [µM] | GI50 (BT474 cells) [µM] | IC50 (human full-length HSP90; [2]) [µM]
CCN(CC)CCSc1nc(-c2ccc(F)cc2C)c2c(C#N)c[nH]c2n1 [Example 19, 2-(2-Diethylamino-ethylsulfanyl)-4-(4-fluoro-2-methyl-phenyl)-7H-pyrrolo[2,3-d]pyrimidine-5-carbonitrile] | < 0.5 | 0.5 to 10 | –
CCN(CC)CCOc1nc(-c2cc(OC)c(Cl)cc2Cl)c2c(C#N)c[nH]c2n1 [Example 24, 4-(2,4-Dichloro-5-methoxy-phenyl)-2-(2-diethylamino-ethoxy)-7H-pyrrolo[2,3-d]pyrimidine-5-carbonitrile] | < 0.5 | 0.5 to 10 | –
CCN(CC)CCOc1cc(-c2nc(SCC(=O)NC)nc3[nH]cc(C#N)c23)c(Cl)cc1Cl [Example 28, 2-{5-Cyano-4-[2,4-dichloro-5-(2-diethylamino-ethoxy)-phenyl]-7H-pyrrolo[2,3-d]pyrimidin-2-ylsulfanyl}-N-methyl-acetamide] | < 0.5 | < 0.5 | –
COc1cc(Cl)c(-c2nc(OCCN3CCC(F)(F)CC3)nc3[nH]cc(C#N)c23)cc1OC [Example 31, 4-(2-Chloro-4,5-dimethoxy-phenyl)-2-[2-(4,4-difluoro-piperidin-1-yl)-ethoxy]-7H-pyrrolo[2,3-d]pyrimidine-5-carbonitrile] | < 0.5 | < 0.5 | –
CC(C)Sc1nc(-c2cc(OCc3ccccc3)c(Cl)cc2Cl)c2c(C#N)c[nH]c2n1 [Example 51] | – | 0.5 to 10 | 0.5 to 10
COc1cc(Cl)c(-c2nc(SC)nc3[nH]cc(C#N)c23)cc1OCCN1CC[C@@H](F)C1 [Example 72] | – | < 0.5 | < 0.5
